Measured values from patent EP1935887A1, “Heterocyclic substituted carbonyl derivatives and their use as dopamine D3 receptor ligands” (Aventis Pharmaceuticals Inc., priority 2001, dated 2002).

Target: T1, Cloned Human Dopamine D3 Receptors (Homo sapiens, UniProt P35462)
T1 construct: expressed in transfected cells; membrane homogenate
Experiment: [N-Methyl-3H]Spiroperidol binding to cloned human dopamine D3 receptors
Settings: D3 Ki (nM)
Source text: [N-Methyl-^3H]Spiroperidol Binding to Cloned Human Dopamine D3 Receptors
This assay measures the in vitro activity of compounds on cloned human dopamine (D3) receptors and predicts the direct dopamine-blocking properties of putative neuropsychiatric agents at human dopamine D3 receptors.
The D3 gene was isolated from a human striatal cDNA library (Stratagene). The gene was sequenced and sub-cloned into the expression vector RC/RSV (Invitrogen). CHO (Chinese Hamster Ovary) cells were stably transfected with 10 µg of the D3/RSV plasmid using the DOTAP method from Boehringer Mannheim and 72 clones that were G418 resistant were isolated. Using mRNA and binding displacement data a single high expressing clone was identified. This clone was then grown in large batches for the purpose of developing a 96 well format assay.
• 1. One plate (10 cm) with approximately 2-3 million D3 cells per plate is incubated with 1 ml of Trypsin-EDTA at room temperature for -2 min or until cells have lifted off plates. Four ml of Ham's F12 + 10% Fetal Bovine Serum + 1% Penicillin/Streptomycin + G418 (400 µg/ml) medium are added to resuspend cells and 1 ml of this is added to each large plate (15 cm) containing 19 ml of the same medium as mentioned above. • 2. The 5 large plates are incubated at 37°C + 5% CO2 for - 3 days or until the cells are confluent. • 3. After these plates are confluent, they are split into 10 large plates. Medium is aspirated off, 2 ml of Trypsin-EDTA are added to each plate and plates are incubated at RT for 2 min or until cells have lifted off the plate. Eight ml of the F12 medium (same medium as #1 above) are added to each plate (10 ml total) to resuspend the cells and 5 ml are transferred to the 2 new plates containing 15 ml of the F12 media. • 4. The 10 large plates are incubated at 37°C + 5% CO2 for ∼ 2 days or until the cells are confluent. • 5. The 10 large plates are split into 60 large plates (using Trypsin-EDTA as #3 except 4 ml of F12 medium are added to resuspend cells and 1 ml is aliquoted to 6 new plates containing 19 ml of F12 medium each). • 6. Plates are incubated at 37°C + 5% CO2 for - 3 days or until cell are confluent. • 7. The 60 large plates are then split into 60 roller bottles (100-150 million cells/bottle). Medium is aspirated off , 2 ml of Trypsin-EDTA are added to each plate and incubated at RT for -2 minutes or until cells have lifted off plates. Eight ml of F12 medium are added to each plate to resuspend cells and the entire 10 ml are added to 1 roller bottle containing 90 ml of the F12 medium. • 8. The 60 roller bottles are immediately placed on their sides and transferred to the roller bottle incubator. They are incubated at 37°C + 5% CO2 for ~ 3-5 days. Cells are spun at 30-40% motor speed in the Forma incubator. • 9. Medium is poured off and cells are washed 2X in PBS. • 10. Cells are then scraped off in 20 ml of PBS and the bottles are rinsed again with 5 ml of PBS to remove any remaining cells. Cells are stored on ice before membrane prepration. • 11. The yield for 60 D3 roller bottles has varied from - 260-500 mg. Note: All tissue culture reagents are from Gibco-BRL.
The cells are harvested into 250 ml centrifuge tubes with 100 volumes of cold phosphate buffered saline (PBS) and spun down (1200xG for 10 min at 4°C). The medium is removed and 100 ml PBS are added to each centrifuge tube, cells are resuspened and spun down again. The PBS is removed and the final pellet is homogenized in an appropriate volume of 10% DMSO with a polytron on ice at a medium setting.
A 200 µl sample membrane homogenate is added to 200 µl of 1% SDS, vortexed and allowed to stand for 5 min. Aliquots (25, 50 and 100 µl) of this mixture are assayed in duplicate following the standard Bio-Rad DC protein assay protocol (kit catalog number 500-0112) and using reagent S. Absorbance readings are made at 750 nm (note: the most accurate protein OD readings are between 0.1-0.5 units). […]

T1 sequence (P35462 whole entry): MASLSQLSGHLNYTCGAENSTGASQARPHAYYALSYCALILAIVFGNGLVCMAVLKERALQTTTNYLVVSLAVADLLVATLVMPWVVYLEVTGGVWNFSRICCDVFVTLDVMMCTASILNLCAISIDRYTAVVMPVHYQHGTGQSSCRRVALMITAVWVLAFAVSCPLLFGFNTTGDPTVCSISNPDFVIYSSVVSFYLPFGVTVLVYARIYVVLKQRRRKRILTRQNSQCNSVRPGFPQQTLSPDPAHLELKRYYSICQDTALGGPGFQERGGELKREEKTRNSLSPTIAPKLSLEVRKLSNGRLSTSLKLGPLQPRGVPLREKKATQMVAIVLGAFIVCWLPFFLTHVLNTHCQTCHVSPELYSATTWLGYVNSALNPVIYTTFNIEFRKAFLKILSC

Going from CN1CCCC1CCNC(=O)[C@H]1C[C@@H]1CN1CCC(c2noc3ccsc23)CC1 (single isomer, unassigned) [compound 832514] to O=C(NC1CCN(CCc2cccc(Cl)c2)CC1)C1CC1CN1CCC(c2noc3ccsc23)CC1 (stereo not drawn) [832573FH], the Ki falls from 115 nM to 4.52 nM (25-fold). The second binds more tightly here.

Compared with O=C(NCCCc1nc2ccccc2[nH]1)[C@@H]1C[C@H]1CN1CCC(c2noc3ccsc23)CC1 [832574FH], Cn1nc(C2CCN(C[C@@H]3C[C@H]3C(=O)NCCCN3CCCCC3)CC2)c2cc(C(F)(F)F)ccc21 [833585ES] is 9.8-fold lower in Ki: 57.3 nM for the first, 5.86 nM for the second.

Molecule CN1C2CCC1CC(NC(=O)C1CC1CN1CCC(c3nn(C)c4c(C(F)(F)F)cccc34)CC1)C2 (stereo not drawn) [A002328941] has a Ki of 23.9 nM.

Same assay, conditions: Table 2; unit inferred; read-out: d3Ki

Going from CC1CCC(NC(=O)C2CC2CN2CCN(c3ccc(C(F)(F)F)cc3)CC2)CC1 (stereo not drawn) [817039A] to CCC1CCC(NC(=O)C2CC2CN2CCN(c3ccc(C(F)(F)F)cc3)CC2)CC1 (stereo not drawn) [817043A], the Ki falls from 35 nM to 18.6 nM (1.9-fold).

Compared with CC[C@H]1CC[C@H](NC(=O)[C@@H]2C[C@H]2CN2CCN(c3ccc(Cl)c(Cl)c3)CC2)CC1 [817090A], CC[C@H]1CC[C@H](NC(=O)[C@@H]2C[C@H]2CN2CCN(c3cc(C)ccc3C)CC2)CC1 [817102A] is 1.5-fold higher in Ki: 5.04 nM for the first, 7.57 nM for the second.

First: Cc1ccccc1N1CCN(C[C@@H]2C[C@H]2C(=O)N[C@H]2CC[C@H](C)CC2)CC1 [817478A]
Second: CC1CCC(NC(=O)C2CC2CN2CCN(c3cccc(Cl)c3Cl)CC2)CC1 (stereo not drawn) [compound 817037]
The Ki of the first is 2-fold higher: 1.99 nM for the first, 0.98 nM for the second. The second binds more tightly here.

Going from CCC1CCC(NC(=O)C2CC2CN2CCN(c3ncc(C(F)(F)F)cc3Cl)CC2)CC1 (stereo not drawn) [817480A] to CC[C@H]1CC[C@H](NC(=O)[C@@H]2C[C@H]2CN2CCN(c3csc4cc(C(F)(F)F)ccc34)CC2)CC1 [compound 815918], the Ki rises from 5.33 nM to 15 nM (2.8-fold). The first binds more tightly here.

Compared with C[C@H]1CC[C@H](NC(=O)[C@@H]2C[C@H]2CN2CCN(c3csc4cc(C(F)(F)F)ccc34)CC2)CC1 [817569A], C[C@H]1CC[C@H](NC(=O)[C@H]2C[C@@H]2CN2CCN(c3csc4cc(C(F)(F)F)ccc34)CC2)CC1 [(+)-816589] is 200-fold higher in Ki: 5.38 nM for the first, 1070 nM for the second.

Going from CCC1CCC(NC(=O)C2CC2CN2CCN(c3cc(C)ccc3C)CC2)CC1 (stereo not drawn) [817570A] to CCC1CCC(NC(=O)C2CC2CN2CCN(c3ccc(C)cc3C)CC2)CC1 (stereo not drawn) [817571A], the Ki rises from 5.04 nM to 11.5 nM (2.3-fold). The first binds more tightly here.

Compared with C[C@H]1CC[C@H](NC(=O)[C@@H]2C[C@H]2CN2CCN(c3csc4cc(C(F)(F)F)ccc34)CC2)CC1 [(-)-817569], CCOC(=O)[C@H]1CC[C@H](NC(=O)[C@@H]2C[C@H]2CN2CCN(c3csc4cc(C(F)(F)F)ccc34)CC2)CC1 [compound 815917] is 6.9-fold higher in Ki: 2.62 nM for the first, 18 nM for the second. The first binds more tightly here.

First: O=C(CCCCN1CCN(c2csc3cc(F)ccc23)CC1)Nc1ccc(F)cc1 [compound 813384]
Second: CCCN(C(=O)CCCCN1CCN(c2csc3cc(F)ccc23)CC1)c1ccc(F)cc1 [compound 814648]
The Ki of the first is 1.9-fold higher: 74 nM for the first, 39.6 nM for the second.

Going from O=C(CCCCN1CCN(c2csc3cc(F)ccc23)CC1)N(Cc1ccccc1)c1ccc(F)cc1 [compound 814649] to C[C@H]1CC[C@H](NC(=O)[C@@H]2C[C@H]2CN2CCN(c3csc4cc(C(F)(F)F)ccc34)CC2)CC1 [compound 815916], the Ki falls from 38.9 nM to 5 nM (7.8-fold).

First: COc1ccc(Cl)cc1N1CCN(CC2CC2C(=O)NC2CCC(C)CC2)CC1 (stereo not drawn) [compound 817038]
Second: CC1CCC(NC(=O)C2CC2CN2CCN(c3ccc(C(F)(F)F)cc3)CC2)CC1 (stereo not drawn) [compound 817039]
The Ki of the first is 16-fold lower: 0.952 nM for the first, 14.8 nM for the second. The first binds more tightly here.

Same assay, conditions: d3Ki, Table 2; unit inferred

Work on C[C@H]1CC[C@H](NC(=O)[C@@H]2C[C@H]2CN2CCN(c3noc4ccsc34)CC2)CC1 [817892A] yielded a Ki of 3.02 nM.

Same assay, conditions: read-out: D3 Ki

Compared with CN1CCCC1CCNC(=O)[C@@H]1C[C@H]1CN1CCC(c2noc3ccsc23)CC1 (mixture of isomers) [compound 831936], O=C(NCC1CCCNC1)[C@@H]1C[C@H]1CN1CCC(c2noc3ccsc23)CC1 (mixture of isomers) [compound 833385] is 10-fold lower in Ki: 34.7 nM for the first, 3.31 nM for the second. The second binds more tightly here.

Going from CC(C)(C)OC(=O)N1CCCC(CNC(=O)[C@@H]2C[C@H]2CN2CCC(c3noc4ccsc34)CC2)C1 (mixture of isomers) [compound 833374] to CC(C)(C)OC(=O)N1CCC(CNC(=O)[C@@H]2C[C@H]2CN2CCC(c3noc4c(C(F)(F)F)cccc34)CC2)CC1 [A002439261], the Ki rises from 30.6 nM to 55.3 nM (1.8-fold). The first binds more tightly here.

Compared with C[C@H]1CC[C@H](NC(=O)[C@@H]2C[C@H]2CN2CCC(c3cc4ccccc4s3)CC2)CC1 (relative stereo) [compound 831148, 2R-(4-Benzo[b]thiophen-2-yl-piperidin-1-ylmethyl)-1R-cyclopranecarboxylic acid (trans-4-methyl-cyclohexyl)-amide], Cn1nc(C2CCN(C[C@@H]3C[C@H]3C(=O)N3CCC(Cn4ccnc4)CC3)CC2)c2sccc21 [A002436292] is 280-fold higher in Ki: 0.454 nM for the first, 129 nM for the second. The first binds more tightly here.

Compared with COCCN1CCN(C(=O)[C@@H]2C[C@H]2CN2CCN(c3nn(C)c4ccc(OC)cc34)CC2)CC1 [832748FH], Cn1nc(N2CCN(C[C@@H]3C[C@H]3C(=O)NCCCN3CCOCC3)CC2)c2sccc21 [A002202402] is 1.7-fold lower in Ki: 79.1 nM for the first, 47.3 nM for the second. The second binds more tightly here.

First: O=C(NCCCN1CCCCC1)[C@@H]1C[C@H]1CN1CCN(c2nn(-c3ccc(C(F)(F)F)cc3)c3ccsc23)CC1 [A002201942]
Second: O=C(NCCCN1CCCCC1)[C@@H]1C[C@H]1CN1CCC(c2nn(CC(F)(F)F)c3ccsc23)CC1 [A002328969]
The Ki of the first is 4.5-fold lower: 30.2 nM for the first, 137 nM for the second. The first binds more tightly here.

Compared with O=C([C@@H]1C[C@H]1CN1CCC(c2nn(CC(F)(F)F)c3ccsc23)CC1)N1CCC(Cn2ccnc2)CC1 [A002328970], CN1CCN(CCCNC(=O)[C@@H]2C[C@H]2CN2CCC(c3nn(CC(F)(F)F)c4ccsc34)CC2)CC1 [A002439265] is 2.4-fold higher in Ki: 36.2 nM for the first, 88 nM for the second. The first binds more tightly here.

Cn1nc(C2CCN(C[C@@H]3C[C@H]3C(=O)NCCCN3CCCCC3)CC2)c2cccc(C(F)(F)F)c21 [A002329092] and Cn1nc(C2CCN(C[C@@H]3C[C@H]3C(=O)NCCCn3ccnc3)CC2)c2cccc(C(F)(F)F)c21 [A002329093] are within 1.5-fold of each other in Ki: 321 nM for the first, 411 nM for the second.

Going from Cn1nc(N2CCN(C[C@@H]3C[C@H]3C(=O)NCCCN3CCSCC3)CC2)c2sccc21 [A002350370] to CN1CCN(CCCNC(=O)[C@@H]2C[C@H]2CN2CCN(c3nc4cccc5c4n3CCC5)CC2)CC1 [A002439100], the Ki rises from 81.2 nM to 552 nM (6.8-fold).

O=C(NC1CCN(Cc2ccc(F)c(F)c2)CC1)[C@@H]1C[C@H]1CN1CCN(c2nn(-c3ccc(OC(F)(F)F)cc3)c3ccsc23)CC1 [A002437083] and O=C(NCCCn1ccnc1)[C@@H]1C[C@H]1CN1CCN(c2nc3cccc4c3n2CCC4)CC1 [A002437350] are within 1.5-fold of each other in Ki: 11 nM for the first, 16.2 nM for the second.

Same assay, conditions: read-out: d3Ki

Going from O=C(N[C@H]1CC[C@H](C(=O)O)CC1)[C@@H]1C[C@H]1CN1CCN(c2csc3cc(C(F)(F)F)ccc23)CC1 [816078A] to O=C(N[C@H]1CC[C@H](O)CC1)[C@@H]1C[C@H]1CN1CCN(c2csc3cc(C(F)(F)F)ccc23)CC1 [compound 816592], the Ki falls from 89.7 nM to 11 nM (8.2-fold). The second binds more tightly here.

First: O=C(NCc1nc2ccccc2[nH]1)[C@@H]1CCC[C@H]1N1CCN(c2csc3cc(F)ccc23)CC1 [825826G]
Second: O=C(NCc1cccnc1)[C@@H]1CCC[C@H]1N1CCN(c2csc3cc(F)ccc23)CC1 [825834G]
The Ki of the first is 4.7-fold higher: 32.5 nM for the first, 6.9 nM for the second.

Going from O=C(NCC1CC1)[C@@H]1CCC[C@H]1N1CCN(c2csc3cc(F)ccc23)CC1 [825829G] to O=C(NC1CCC(CO)CC1)C1CC1CN1CCN(c2csc3cc(C(F)(F)F)ccc23)CC1 (stereo not drawn) [compound 816593], the Ki falls from 40.1 nM to 7.47 nM (5.4-fold). The second binds more tightly here.

Same assay, conditions: the 17th table; read-out: D3 Ki

For C[C@H]1CC[C@H](N2CC(CN3CCN(c4noc5ccsc45)CC3)CC2=O)CC1 (stereo partly drawn) [832831 DA], the Ki was 154 nM.
